pIC50: −log10 of the molar value.
Tested on: 677734-321-R-J1-PDC complex spheroid viability
Assay: Anticancer human tumor 677734-321-R-J1-PDC patient-derived soft tissue sarcoma cell line growth inhibition [POLQ]
Details: for pIC50: curve of first compound; for viability, T/C: stronger effect = lower value
In short: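 Growth inhibition in 3D: complex spheroids (tumor PDC, HUVEC, MSC) treated with POLQ inhibitor combinations; where Cmax unknown, highest tested concentration 10 microM, except SN-38 at 1 microM.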

[1] = second compound 0.0316 µM, first compound 0.0316 µM
[2] = second compound 0.0316 µM, first compound 0.1 µM
[3] = second compound 0.0316 µM, first compound 0.316 µM
[4] = second compound 0.0316 µM, first compound 1 µM
[5] = second compound 0.0316 µM, first compound 3.16 µM
[6] = second compound 0.0316 µM, first compound 10 µM
[7] = second compound 0.1 µM, first compound 0.0316 µM
[8] = second compound 0.1 µM, first compound 0.1 µM
[9] = second compound 0.1 µM, first compound 0.316 µM
[10] = second compound 0.1 µM, first compound 1 µM
[11] = second compound 0.1 µM, first compound 3.16 µM
[12] = second compound 0.1 µM, first compound 10 µM
[13] = second compound 0.316 µM, first compound 0.0316 µM
[14] = second compound 0.316 µM, first compound 0.1 µM
[15] = second compound 0.316 µM, first compound 0.316 µM
[16] = second compound 0.316 µM, first compound 1 µM
[17] = second compound 0.316 µM, first compound 3.16 µM
[18] = second compound 0.316 µM, first compound 10 µM
[19] = second compound 1 µM, first compound 0.0316 µM
[20] = second compound 1 µM, first compound 0.1 µM
[21] = second compound 1 µM, first compound 0.316 µM
[22] = second compound 1 µM, first compound 1 µM
[23] = second compound 1 µM, first compound 3.16 µM
[24] = second compound 1 µM, first compound 10 µM
[25] = second compound 3.16 µM, first compound 0.0316 µM
[26] = second compound 3.16 µM, first compound 0.1 µM
[27] = second compound 3.16 µM, first compound 0.316 µM
[28] = second compound 3.16 µM, first compound 1 µM
[29] = second compound 3.16 µM, first compound 3.16 µM
[30] = second compound 3.16 µM, first compound 10 µM
[31] = second compound 10 µM, first compound 0.0316 µM
[32] = second compound 10 µM, first compound 0.1 µM
[33] = second compound 10 µM, first compound 0.316 µM
[34] = second compound 10 µM, first compound 1 µM
[35] = second compound 10 µM, first compound 3.16 µM
[36] = second compound 10 µM, first compound 10 µM
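Note: spheroids exposed to compounds for one week.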
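Throughout, for viability, T/C: 100% = vehicle DMSO treated spheroids.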

## C=CC(=O)N1CCN(c2nc(=O)n(-c3c(C)ccnc3C(C)C)c3nc(-c4c(O)cccc4F)c(F)cc23)C(C)C1 (stereo not drawn) + COC1C(OC(N)=O)C(O)C(Oc2ccc3c(O)c(NC(=O)c4ccc(O)c(CC=C(C)C)c4)c(=O)oc3c2C)OC1(C)C
Second compound 0.0316 µM
  pIC50: < 5.00
Second compound 0.1 µM
  pIC50: < 5.00
Second compound 0.316 µM
  pIC50: < 5.00
Second compound 1 µM
  pIC50: < 5.00
Second compound 3.16 µM
  pIC50: < 5.00
Second compound 10 µM
  pIC50: < 5.00
[1]
  viability, T/C: 109%
[2]
  viability, T/C: 92.4%
[3]
  viability, T/C: 102%
[4]
  viability, T/C: 97.1%
[5]
  viability, T/C: 104%
[6]
  viability, T/C: 86.4%
[7]
  viability, T/C: 102%
[8]
  viability, T/C: 104%
[9]
  viability, T/C: 103%
[10]
  viability, T/C: 102%
[11]
  viability, T/C: 99.9%
[12]
  viability, T/C: 81.7%
[13]
  viability, T/C: 102%
[14]
  viability, T/C: 97.3%
[15]
  viability, T/C: 106%
[16]
  viability, T/C: 101%
[17]
  viability, T/C: 107%
[18]
  viability, T/C: 84.8%
[19]
  viability, T/C: 98.4%
[20]
  viability, T/C: 99.3%
[21]
  viability, T/C: 104%
[22]
  viability, T/C: 113%
[23]
  viability, T/C: 105%
[24]
  viability, T/C: 89.2%
[25]
  viability, T/C: 102%
[26]
  viability, T/C: 101%
[27]
  viability, T/C: 105%
[28]
  viability, T/C: 106%
[29]
  viability, T/C: 106%
[30]
  viability, T/C: 80.7%
[31]
  viability, T/C: 107%
[32]
  viability, T/C: 103%
[33]
  viability, T/C: 96%
[34]
  viability, T/C: 106%
[35]
  viability, T/C: 95.8%
[36]
  viability, T/C: 86.7%

## O=c1[nH]cc(F)c(=O)[nH]1 + Nc1ccc(C#CCN(C(=O)Cc2ncc(C(F)(F)F)cc2C(F)(F)F)c2ccc(F)cc2)nn1
Second compound 0.0316 µM
  pIC50: < 5.00
Second compound 0.1 µM
  pIC50: < 5.00
Second compound 0.316 µM
  pIC50: < 5.00
Second compound 1 µM
  pIC50: < 5.00
Second compound 3.16 µM
  pIC50: < 5.00
Second compound 10 µM
  pIC50: < 5.00
[1]
  viability, T/C: 101%
[2]
  viability, T/C: 113%
[3]
  viability, T/C: 93.8%
[4]
  viability, T/C: 91.9%
[5]
  viability, T/C: 68.7%
[6]
  viability, T/C: 54.7%
[7]
  viability, T/C: 117%
[8]
  viability, T/C: 112%
[9]
  viability, T/C: 101%
[10]
  viability, T/C: 108%
[11]
  viability, T/C: 64.9%
[12]
  viability, T/C: 54.4%
[13]
  viability, T/C: 103%
[14]
  viability, T/C: 105%
[15]
  viability, T/C: 119%
[16]
  viability, T/C: 76.5%
[17]
  viability, T/C: 66.5%
[18]
  viability, T/C: 54.9%
[19]
  viability, T/C: 107%
[20]
  viability, T/C: 93.8%
[21]
  viability, T/C: 96.4%
[22]
  viability, T/C: 90.8%
[23]
  viability, T/C: 61.3%
[24]
  viability, T/C: 56.4%
[25]
  viability, T/C: 102%
[26]
  viability, T/C: 99%
[27]
  viability, T/C: 103%
[28]
  viability, T/C: 89%
[29]
  viability, T/C: 65.1%
[30]
  viability, T/C: 53.3%
[31]
  viability, T/C: 101%
[32]
  viability, T/C: 110%
[33]
  viability, T/C: 95.5%
[34]
  viability, T/C: 94.7%
[35]
  viability, T/C: 68.9%
[36]
  viability, T/C: 54.5%

## COc1cccc2c1C(=O)c1c(O)c3c(c(O)c1C2=O)CC(O)(C(=O)CO)CC3OC1CC(N)C(O)C(C)O1 (stereo not drawn) + COC1C(OC(N)=O)C(O)C(Oc2ccc3c(O)c(NC(=O)c4ccc(O)c(CC=C(C)C)c4)c(=O)oc3c2C)OC1(C)C
Second compound 0.0316 µM
  pIC50: 6.98
Second compound 0.1 µM
  pIC50: 6.86
Second compound 0.316 µM
  pIC50: 6.88
Second compound 1 µM
  pIC50: 6.83
Second compound 3.16 µM
  pIC50: 6.89
Second compound 10 µM
  pIC50: 6.86
[1]
  viability, T/C: 84.4%
[2]
  viability, T/C: 51.5%
[3]
  viability, T/C: 7.79%
[4]
  viability, T/C: 3.03%
[5]
  viability, T/C: 2.77%
[6]
  viability, T/C: 2.45%
[7]
  viability, T/C: 77.6%
[8]
  viability, T/C: 66.7%
[9]
  viability, T/C: 7.11%
[10]
  viability, T/C: 0.57%
[11]
  viability, T/C: 1.78%
[12]
  viability, T/C: 3.77%
[13]
  viability, T/C: 60.4%
[14]
  viability, T/C: 67%
[15]
  viability, T/C: 7.66%
[16]
  viability, T/C: 0.61%
[17]
  viability, T/C: 2.67%
[18]
  viability, T/C: 3.36%
[19]
  viability, T/C: 83.5%
[20]
  viability, T/C: 70.1%
[21]
  viability, T/C: 11.2%
[22]
  viability, T/C: 0.59%
[23]
  viability, T/C: 1.98%
[24]
  viability, T/C: 2.55%
[25]
  viability, T/C: 74.5%
[26]
  viability, T/C: 62.4%
[27]
  viability, T/C: 8.7%
[28]
  viability, T/C: 0.64%
[29]
  viability, T/C: 2.76%
[30]
  viability, T/C: 2.4%
[31]
  viability, T/C: 68.8%
[32]
  viability, T/C: 67.1%
[33]
  viability, T/C: 7.17%
[34]
  viability, T/C: 0.88%
[35]
  viability, T/C: 3.28%
[36]
  viability, T/C: 1.86%

## CC1COCCN1c1cc(C2(S(C)(=N)=O)CC2)nc(-c2ccnc3[nH]ccc23)n1 (stereo not drawn) + Nc1ccc(C#CCN(C(=O)Cc2ncc(C(F)(F)F)cc2C(F)(F)F)c2ccc(F)cc2)nn1
Second compound 0.0316 µM
  pIC50: 5.86
Second compound 0.1 µM
  pIC50: 5.91
Second compound 0.316 µM
  pIC50: 6.06
Second compound 1 µM
  pIC50: 5.99
Second compound 3.16 µM
  pIC50: 6.05
Second compound 10 µM
  pIC50: 6.18
[1]
  viability, T/C: 98.3%
[2]
  viability, T/C: 91.7%
[3]
  viability, T/C: 75%
[4]
  viability, T/C: 65.3%
[5]
  viability, T/C: 23.5%
[6]
  viability, T/C: 9.33%
[7]
  viability, T/C: 96.2%
[8]
  viability, T/C: 118%
[9]
  viability, T/C: 73.6%
[10]
  viability, T/C: 57.1%
[11]
  viability, T/C: 28.1%
[12]
  viability, T/C: 7.36%
[13]
  viability, T/C: 109%
[14]
  viability, T/C: 105%
[15]
  viability, T/C: 105%
[16]
  viability, T/C: 42.7%
[17]
  viability, T/C: 27.1%
[18]
  viability, T/C: 9.47%
[19]
  viability, T/C: 118%
[20]
  viability, T/C: 94.5%
[21]
  viability, T/C: 72.9%
[22]
  viability, T/C: 59.2%
[23]
  viability, T/C: 19.1%
[24]
  viability, T/C: 8.77%
[25]
  viability, T/C: 111%
[26]
  viability, T/C: 87.1%
[27]
  viability, T/C: 96.9%
[28]
  viability, T/C: 43.3%
[29]
  viability, T/C: 21.7%
[30]
  viability, T/C: 8.55%
[31]
  viability, T/C: 105%
[32]
  viability, T/C: 103%
[33]
  viability, T/C: 72.6%
[34]
  viability, T/C: 35.2%
[35]
  viability, T/C: 19.3%
[36]
  viability, T/C: 6.41%
